For the first assay, the target named is T1, rhIKK1/IKK2 heterodimer (Homo sapiens, UniProt O14920+O15111).
T1 construct: made in house; host or cells: insect cells (baculovirus coinfection; SF9)
T1 sequence (O14920 1-756): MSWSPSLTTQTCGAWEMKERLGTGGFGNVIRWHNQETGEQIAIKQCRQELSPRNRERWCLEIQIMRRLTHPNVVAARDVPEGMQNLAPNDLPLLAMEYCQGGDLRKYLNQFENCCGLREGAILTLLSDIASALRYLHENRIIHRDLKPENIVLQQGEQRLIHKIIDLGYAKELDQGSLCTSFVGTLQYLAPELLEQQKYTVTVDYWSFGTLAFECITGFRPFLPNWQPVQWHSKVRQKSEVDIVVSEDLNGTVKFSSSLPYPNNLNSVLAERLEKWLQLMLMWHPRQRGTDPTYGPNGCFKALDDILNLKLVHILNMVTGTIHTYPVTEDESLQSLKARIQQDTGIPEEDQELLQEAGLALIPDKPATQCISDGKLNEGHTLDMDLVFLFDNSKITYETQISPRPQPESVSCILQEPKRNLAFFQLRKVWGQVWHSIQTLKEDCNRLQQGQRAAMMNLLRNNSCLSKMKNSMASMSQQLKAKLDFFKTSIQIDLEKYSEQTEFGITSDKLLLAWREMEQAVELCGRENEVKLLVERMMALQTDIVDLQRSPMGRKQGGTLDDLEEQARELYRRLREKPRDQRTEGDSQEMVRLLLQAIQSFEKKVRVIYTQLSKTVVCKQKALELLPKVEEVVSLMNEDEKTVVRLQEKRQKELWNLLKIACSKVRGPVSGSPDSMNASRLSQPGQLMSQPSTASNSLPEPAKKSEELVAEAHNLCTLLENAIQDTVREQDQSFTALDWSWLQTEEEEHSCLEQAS
T1 sequence (O15111 1-745): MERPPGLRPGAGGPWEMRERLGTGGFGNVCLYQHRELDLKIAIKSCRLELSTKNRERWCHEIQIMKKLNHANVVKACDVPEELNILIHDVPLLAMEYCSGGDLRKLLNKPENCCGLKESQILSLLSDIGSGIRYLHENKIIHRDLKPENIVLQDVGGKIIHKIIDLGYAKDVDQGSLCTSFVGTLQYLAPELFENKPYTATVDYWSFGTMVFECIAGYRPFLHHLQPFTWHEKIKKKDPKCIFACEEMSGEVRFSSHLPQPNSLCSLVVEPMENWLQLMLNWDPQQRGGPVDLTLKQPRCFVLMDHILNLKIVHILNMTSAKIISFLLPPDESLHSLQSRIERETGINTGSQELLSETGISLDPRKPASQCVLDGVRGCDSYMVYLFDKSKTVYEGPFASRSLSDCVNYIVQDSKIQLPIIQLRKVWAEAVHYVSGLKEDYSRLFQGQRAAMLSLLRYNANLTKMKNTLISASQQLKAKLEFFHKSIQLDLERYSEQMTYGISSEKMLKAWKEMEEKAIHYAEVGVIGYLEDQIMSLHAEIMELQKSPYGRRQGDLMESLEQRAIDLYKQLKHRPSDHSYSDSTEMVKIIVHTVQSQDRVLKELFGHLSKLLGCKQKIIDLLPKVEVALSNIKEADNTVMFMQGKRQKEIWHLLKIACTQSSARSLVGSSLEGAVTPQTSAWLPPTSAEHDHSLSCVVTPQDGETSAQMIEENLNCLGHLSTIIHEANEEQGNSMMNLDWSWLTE
In words: IKK Heterodimer Resin Enzyme Assay. Format: biochemical.
Settings: not given
From the text: cDNAs of human IKK1 and IKK2 were amplified by reverse transcriptase-polymerase chain reaction from human placental RNA (Clonetech). hIKK1 was subcloned into pFastBac HTa (Life Technologies) and expressed as N-terminal His6-tagged fusion protein. The hIKK2 cDNA was amplified using a reverse oligonucleotide primer which incorporated the peptide sequence for a FLAG-epitope tag at the C-terminus of the IKK2 coding region ([…]). The hIKK2:FLAG cDNA was subcloned into the baculovirus vector pFastBac. The rhIKK2 ([…]) mutant was constructed in the same vector used for wild type rhIKK2 using a QuikChange™ mutagenesis kit (Stratagene). Viral stocks of each construct were used to infect insect cells grown in 40L suspension culture. […] Cell lysates were stored at −80° C. until purification of the recombinant proteins was undertaken as described below.
Isolation of rhIKK1/IKK2 Heterodimer
The heterodimer enzyme was produced by coinfection in a baculovirus system (FLAG IKK2/IKK1 His; MOI=0.1 and I=72 hrs). Infected cells were centrifuged and the cell pellet (10.0 g) was suspended in 50 ml of buffer A. The protein suspension was microfluidized and centrifuged at 100,000×g for 45 min. Imidazole was added to the supernatant to a final concentration of 10 mM. The protein was allowed to bind 25 ml of Ni-NTA resin by mixing for 2 hrs. The protein-resin slurry was poured into a 25 ml column and washed with 250 ml of buffer A containing 10 mM imidazole followed by 125 ml of buffer A containing 50 mM imidazole. Buffer A, containing 300 mM imidazole, was then used to elute the protein. A 75 ml pool was collected and NP-40 was added to a final concentration of 0.1%. […] The protein-resin slurry was then centrifuged for 5 min at 2,000 rpm. The supernatant was collected and the resin re-suspended in 100 ml of buffer C containing 0.1% NP-40. The resin was washed with 375 ml of buffer C containing 0.1% NP-40. The protein-resin was poured into a 25 ml column and the enzyme eluted using buffer B containing FLAG peptide. Enzyme fractions (100 ml) were collected and concentrated to 20 ml using an Amicon membrane with molecular weight cut-off of 30 kDa. Bovine serum albumin was added to the concentrated enzyme to final concentration of 0.1%. The enzyme was then aliquoted and stored at −80° C.
IKK Heterodimer Resin Enzyme Assay
Resin was allowed to settle for one hour and 50 ul of supernatant was removed to a Micolite-2 flat bottom plate (Dynex). 150 μl of scintillation fluid (Microscint 40) (Packard) was added to each well. Incorporation of [γ-^33P] ATP was measured using a Top-Count NXT (Packard).
What is called IC50 is the midpoint of a concentration-inhibition curve. `COc1ccccc1C(=O)Nc1ccc2ccc3c(C(N)=O)nn(-c4ccc(S(N)(=O)=O)cc4)c3c2c1` [Example 25, 1-[4-(aminosulfonyl)phenyl]-8-[(2-methoxybenzoyl)amino]-1H-benzo[g]indazole-3-carboxamide]: the IC50 was in the range of 1000 to 10000 nM.

The same assay, now with this note: Table 1; values given as bins; read-out: HetD (IKK heterodimer assay values expressed as IC50).
In the case of `NC(=O)c1nn(-c2ccc(S(N)(=O)=O)cc2)c2c1ccc1ccc(NC(=O)c3cccc(Br)c3)cc12` [Example 12, 1-[4-(aminosulfonyl)phenyl]-8-[(3-bromobenzoyl)amino]-1H-benzo[g]indazole-3-carboxamide], the IC50 was not above 1000 nM.

As to `N#Cc1cccc(C(=O)Nc2ccc3ccc4c(C(N)=O)nn(-c5ccc(S(N)(=O)=O)cc5)c4c3c2)c1` [Example 17, 1-[4-(aminosulfonyl)phenyl]-8-[(3-cyanobenzoyl)amino]-1H-benzo[g]indazole-3-carboxamide], the half-inhibitory concentration (IC50) was not above 1000 nM.

For the compound `NC(=O)c1nn(-c2ccc(S(N)(=O)=O)cc2)c2c1ccc1ccc(NC(=O)c3ccccc3Cl)cc12` [Example 14, 1-[4-(aminosulfonyl)phenyl]-8-[(2-chlorobenzoyl)amino]-1H-benzo[g]indazole-3-carboxamide], the concentration for half-maximal inhibition (IC50) was not above 1000 nM.

Consider `NC(=O)c1nn(-c2ccc(S(N)(=O)=O)cc2)c2c1ccc1ccc(NS(=O)(=O)c3cccc(Cl)c3)cc12` [Example 16, 1-[4-(aminosulfonyl)phenyl]-8-{[(3-chlorophenyl)sulfonyl]amino}-1H-benzo[g]indazole-3-carboxamide], for which the IC50 lay in the range of 1000 to 10000 nM.

With `NC(=O)c1nn(-c2ccc(S(N)(=O)=O)cc2)c2c1ccc1ccc(NC(=O)c3cccc(Cl)c3)cc12` [Example 9, 1-[4-(aminosulfonyl)phenyl]-8-[(3-chlorobenzoyl)amino]-1H-benzo[g]indazole-3-carboxamide], the IC50 was not above 1000 nM.

Consider `NC(=O)c1nn(-c2ccc(S(N)(=O)=O)cc2)c2c1ccc1ccc(NC(=O)c3cccc(Cl)c3Cl)cc12` [Example 30, 1-[4-(aminosulfonyl)phenyl]-8-[(2,3-dichlorobenzoyl)amino]-1H-benzo[g]indazole-3-carboxamide], for which the IC50 was not above 1000 nM.

For `C=CCN(CC=C)S(=O)(=O)c1ccc(-n2nc(C(N)=O)c3ccc4ccc(N)cc4c32)cc1` [Example 7, 8-amino-1-{4-[(diallylamino)sulfonyl]phenyl}-1H-benzo[g]indazole-3-carboxamide], the IC50 is not above 1000 nM.

In the case of “8-amino-1-{4-[(aminothio)peroxy]phenyl}-1H-benzo[g]indazole-3-carboxamide [Example 4c]”, the IC50 was not above 1000 nM.

Turning to `Cc1cccc(S(=O)(=O)Nc2ccc3ccc4c(C(N)=O)nn(-c5ccc(S(N)(=O)=O)cc5)c4c3c2)c1` [Example 18, 1-[4-(aminosulfonyl)phenyl]-8-{[(3-methylphenyl)sulfonyl]amino}-1H-benzo[g]indazole-3-carboxamide], the IC50 lay within 10000 to 100000 nM.

As to `NC(=O)c1nn(-c2ccc(S(N)(=O)=O)cc2)c2c1ccc1ccc(NS(=O)(=O)c3cc(C(F)(F)F)cc(C(F)(F)F)c3)cc12` [Example 24, 1-[4-(aminosulfonyl)phenyl]-8-({[3,5-bis(trifluoromethyl)phenyl]sulfonyl}amino)-1H-benzo[g]indazole-3-carboxamide], the IC50 was in the range of 1000 to 10000 nM.

As for `Cc1ccccc1C(=O)Nc1ccc2ccc3c(C(N)=O)nn(-c4ccc(S(N)(=O)=O)cc4)c3c2c1` [Example 27, 1-[4-(aminosulfonyl)phenyl]-8-[(2-methylbenzoyl)amino]-1H-benzo[g]indazole-3-carboxamide], the IC50 is not above 1000 nM.

On to `NC(=O)c1nn(-c2ccc(S(N)(=O)=O)cc2)c2c1ccc1ccc(NC(=O)c3ccncc3)cc12` [Example 34, 1-[4-(aminosulfonyl)phenyl]-8-(isonicotinoylamino)-1H-benzo[g]indazole-3-carboxamide], for which the half-inhibitory concentration (IC50) is not above 1000 nM.

For `NC(=O)c1nn(-c2ccc(S(N)(=O)=O)cc2)c2c1ccc1ccc(NC(=O)c3cccnc3Cl)cc12` [Example 32, 1-[4-(aminosulfonyl)phenyl]-8-{[(2-chloropyridin-3-yl)carbonyl]amino}-1H-benzo[g]indazole-3-carboxamide], the concentration for half-maximal inhibition (IC50) was not above 1000 nM.

`COc1cccc(C(=O)Nc2ccc3ccc4c(C(N)=O)nn(-c5ccc(S(N)(=O)=O)cc5)c4c3c2)c1` [Example 8, 1-[4-(aminosulfonyl)phenyl]-8-[(3-methoxybenzoyl)amino]-1H-benzo[g]indazole-3-carboxamide]: the IC50 is not above 1000 nM.

For the compound `NC(=O)c1nn(-c2ccc(S(N)(=O)=O)cc2)c2c1ccc1ccc(NS(=O)(=O)c3ccc(Cl)c(Cl)c3)cc12` [Example 22, 1-[4-(aminosulfonyl)phenyl]-8-{[(3,4-dichlorophenyl)sulfonyl]amino}-1H-benzo[g]indazole-3-carboxamide], the 50% inhibitory concentration (IC50) was in the range of 1000 to 10000 nM.

Turning to `CS(=O)(=O)Nc1ccc2ccc3c(C(N)=O)nn(-c4ccc(S(N)(=O)=O)cc4)c3c2c1` [Example 21, 1-[4-(aminosulfonyl)phenyl]-8-[(methylsulfonyl)amino]-1H-benzo[g]indazole-3-carboxamide], the IC50 was not above 1000 nM.

With `NC(=O)c1nn(-c2ccc(S(N)(=O)=O)cc2)c2c1ccc1ccc(NC(=O)c3cccc(C(F)(F)F)c3)cc12` [Example 10, 1-[4-(aminosulfonyl)phenyl]-8-{[3-(trifluoromethyl)benzoyl]amino}-1H-benzo[g]indazole-3-carboxamide], the IC50 lay within 1000 to 10000 nM.

`NC(=O)c1nn(-c2ccc(S(N)(=O)=O)cc2)c2c1ccc1ccc(NS(=O)(=O)c3ccccc3Cl)cc12` [Example 33, 1-[4-(aminosulfonyl)phenyl]-8-{[(2-chlorophenyl)sufonyl]amino}-1H-benzo[g]indazole-3-carboxamide]: the IC50 fell in the range of 1000 to 10000 nM.

In the case of `NC(=O)c1nn(-c2ccc(S(N)(=O)=O)cc2)c2c1ccc1ccc(NC(=O)c3ccccc3OC(F)(F)F)cc12` [Example 29], the half-maximal inhibitory concentration (IC50) was not above 1000 nM.

Regarding `NC(=O)c1nn(-c2ccc(S(N)(=O)=O)cc2)c2c1ccc1ccc(NC(=O)c3ccccc3F)cc12` [Example 31, 1-[4-(aminosulfonyl)phenyl]-8-[(2-fluorobenzoyl)amino]-1H-benzo[g]indazole-3-carboxamide], the IC50 is not above 1000 nM.
